Measurements taken from patent US20250170133A1, “PHARMACEUTICAL COMBINATIONS AND METHODS OF USE OF AMINO-PYRROLOPYRIMIDINONE COMPOUND” (Merck Sharp & Dohme LLC, priority 2022, published 2025).

Tests used:
[1] = tested on: Eμ-TCL1 adoptive transfer CLL mouse model; experiment: Eμ-TCL1 adoptive transfer CLL mouse model, survival; type: in vivo, C57BL/6NTac mice; details: daily oral gavage; venetoclax 100 mg/kg, nemtabrutinib 75 mg/kg, ibrutinib 25 mg/kg; 48 mice with BCR-dependent disease
Text: (Bichi R, et al. Proc Natl Acad Sci USA. 2002; 99(10):6955-60). For FIG. 2A, splenocytes from a Eμ-TCL1 donor mouse were engrafted into 93 C57BL/6NTac mice via tail vein injection. Recipient mice were randomly enrolled into treatment groups after developing CD5+CD19+ disease as assessed by flow cytometry of peripheral blood. […] Due to the large study size, splenocytes from multiple E-TCL1 donors were needed to engraft C57BL/6NTac mice. Splenocytes from 4 donors were engrafted into groups of 48, 25, 17, and 3 recipient mice, respectively.
Peripheral blood disease progression was monitored weekly via flow cytometry and was reported as % CD5+CD19+ of CD45+ cells. (FIG. 2B). […] The survival differences of 48 mice engrafted with splenocytes from a single donor with BCR-dependent disease were assessed.

[2] = tested on: BTK^Y223 autophosphorylation; experiment: Immunoblot of anti-IgM stimulated primary CLL cells: pBTK; type: cell-based, human; details: ibrutinib (1 μM), 24 hr, anti-IgM 15 min, normalized to GAPDH
BCL-2 and BCL-xL = experiment: BH3 profiling of primary CLL cells from nemtabrutinib treated patients (cytochrome c release); type: cell-based, human; details: samples from 3 nemtabrutinib treated patients, co-cultured with NK Tert stromal cells
Text: For FIG. 1F, primary CLL cells from nemtabrutinib treated patients were co-cultured with NK Tert stromal cells before performing BH3 profiling using BIM, BAD, MS-1, Y4ek, and PUMA2A peptides. Baseline cytochrome c release measured in DMSO treated cells has been subtracted from all test conditions and controls presented. Cytochrome c release in response to interaction with BIM, BAD, and Y4ek peptides indicates cellular dependency on BCL-2 and BCL-xL. A linear mixed effect model was used to analyze raw data and p values were adjusted for multiple comparisons using Tukey's method. All statistics represented are in comparison to DMSO treated control (*, p<0.05, **, p<0.01, ***, p<0.001).

ERK phosphorylation = experiment: Immunoblot of anti-IgM stimulated primary CLL cells: pERK; type: cell-based, human; details: nemtabrutinib vs ibrutinib (1 μM), 24 hr, anti-IgM 15 min, normalized to GAPDH
Protocol: The effects of combining venetoclax and BTKi's on BCR signaling can be seen in FIG. 1B. […] Cells were stimulated with 10 μg plate-bound anti-IgM for 15 min before collection of whole cell lysate and analysis using SDS-PAGE.
For FIG. 1C to IE, all immunoblots of primary CLL patient samples were quantified using densitometry software (AlphaView). Protein levels (FIG. 1C: pBTK, FIG. 1D: pERK, FIG. 1E: MCL-1) normalized to GAPDH loading control are reported as fold change over vehicle control. A linear mixed effect model was used to analyze raw data normalized to GAPDH loading control and p values were adjusted for multiple comparisons using Tukey's method (*, p<0.05, ** p<0.01, ***, p<0.001).

Primary CLL cells = experiment: Primary CLL cell viability by flow cytometry following Annexin V/PI staining; type: cell-based, human; details: BTKi 1 μM added to venetoclax 5 nM; ibrutinib washed out after 1 hr; total incubation 24 hr
Protocol: Cell viability was assessed by flow cytometry following Annexin V/PI staining. Data are normalized to DMSO control. A linear mixed effect model was used to analyze raw data and p values were adjusted for multiple comparisons using Tukey's method (*, p<0.05, **, pS0.01, ***, pS0.001).

BTK's downstream targets = details: cited from earlier work

CC1(C)CCC(CN2CCN(c3ccc(C(=O)NS(=O)(=O)c4ccc(NCC5CCOCC5)c([N+](=O)[O-])c4)c(Oc4cnc5[nH]ccc5c4)c3)CC2)=C(c2ccc(Cl)cc2)C1 [venetoclax, reference compound]
median survival [1]: 34.5 days

O=C(c1ccc(Oc2ccccc2)cc1Cl)c1c[nH]c2ncnc(N[C@@H]3CC[C@@H](CO)OC3)c12 [nemtabrutinib]
autophosphorylation of BTK^Y223 vs stimulated vehicle [2]: significantly inhibited | median survival [1]: 81.5 days | cytochrome c release in response to BIM, BAD and Y4ek peptides (BCL-2 and BCL-xL): maintain dependence on BCL2 and BCL-xL | ERK phosphorylation (ERK phosphorylation): inhibited to a more significant degree | increase in cytotoxicity compared to venetoclax alone (Primary CLL cells): 10% | inhibition of BTK's downstream targets compared to ibrutinib (BTK's downstream targets): greater inhibition
